The text below walks through data of paper PMC8037336, “Metabolite Profiling and Characterization of LW6, a Novel HIF-1α Inhibitor, as an Antitumor Drug Candidate in Mice” (Molecules, 2021).

“And” between values parts separate entries of the source, which are not always exact repeats. Identical values can stand only once.

The nature of the series: Metabolite profiling and semi-quantitation (peak area-time AUC) of LW6 and its metabolites in mouse plasma after a single i.v. or oral dose of LW6. The series is classed as in vivo, male ICR mice. The following applies: for Relative % of Parent AUC0→t (i.v.): AUC0→t relative to AUC0→t of parent after i.v. administration; for Relative % of Total Metabolite AUC0→t: relative to sum of AUC0→t of all detected metabolites; for Relative AUC of metabolite versus parent AUC (i.v.): versus AUC0→t of LW6 administered intravenously; for Relative % of Parent AUC0→t (p.o.): AUC0→t relative to AUC0→t of parent after i.v. administration (5 mg/kg); for Average AUC0→t (Peak Intensity, Cps) / Average AUC0→t (Peak inTensity, cps): mouse plasma, n = 3, 0-24 h, LC-MS/MS peak intensity-time curve; for Average AUC0→t (Peak Intensity, Cps): LW6 5 mg/kg i.v.; for Average AUC0→t (Peak inTensity, cps): LW6 5 mg/kg p.o.; for Detection of metabolite in mouse plasma: LW6 5 mg/kg i.v. or p.o., pMRM-IDA-EPI, S/N > 3. The procedure:
To determine the in vivo metabolism of LW6, male ICR mice were administered a single intravenous (i.v., 5 mg/kg) or oral dose (p.o., 5 mg/kg) of LW6. Serial blood samples (Section 4.2) were collected and metabolite identification was performed using a pMRM-IDA-EPI scan method in negative ion mode on a QTRAP.
Animal experiments were approved by the Institutional Animal Care and Use Committee of the Korea Research Institute of Bioscience and Biotechnology (Chungbuk, Korea; KRIBB-AEC-15005, 9 January 2015) and performed in compliance with the National Institutes of Health Guidelines for the care and use of laboratory animals and Korean national laws for ethical conduct in the care and use of animals and the rules of Good Laboratory Practice. Six specific pathogen-free (SPF) male ICR mice (8 weeks, 31.5–40.1 g) were purchased from Koatech Co. (Pyeongtaek, Kyonggi, Korea) and maintained in an SPF environment at 22 ± 2 °C with a 12 h light/dark cycle and relative humidity of 50 ± 10%. Food (Teklad Global rodent diet 2018S, ENVIGO, Indianapolis, IN, USA) and water were provided ad libitum, unless noted otherwise. Animals were acclimated to the testing facility for 1 week before being used in the study. The animal group for oral dosing was fasted overnight before the study and fed again 4 h after dosing. Mice were administered a single dose of the test substance intravenously via tail vein injection (n = 3, 5 mg/kg) or orally by disposable syringe with an oral zonde (n = 3, 5 mg/kg). Dosing solutions were prepared in dimethylacetamide/Cremophor EL/20% v/v (2-hydroxypropyl)-β-cyclodextrin in de-ionized water (1/1/3 v/v/v; i.v. or p.o. for LW6) and administered at a dose volume of 5 mL/kg for both i.v. and p.o. Peng et al. method was used for serial blood sampling in mice. Briefly, blood samples (~50 µL each) were collected via the saphenous vein of free alive mice at the time points including 0, 0.25, 0.5, 0.75, 1, 2, 4, 6, 8, and 24 h after oral administration or 0, 0.083, 0.167, 0.25, 0.5, 1, 2, 4, 6, 8, and 24 h after intravenous administration. These samples were collected into Microvette® capillary tubes at predetermined time points. The blood samples were centrifuged under refrigeration at 12,000× g for 3 min and then stored frozen at −20 °C until analysis.
Plasma samples were prepared for analysis by the protein precipitation method. A simple protein precipitation is to remove proteins in plasma samples with organic solvents. Briefly, 15 µL of each plasma sample was transferred to a PCR tube (Axygen, Union City, CA, USA). Four volumes of acetonitrile containing the analytical internal standard, 4-methylumbelliferone, were added, and the resulting mixture was vortexed for 10 min on a multi-tube vortexer (VWR International, Radnor, PA, USA). The samples were sonicated for 30 min at room temperature. The tubes were centrifuged at 12,000× g for 10 min, and the supernatant was analyzed for the test substance. Sample analysis was performed with a 3200 Q TRAP LC/MS/MS system (Applied Biosystems, Foster City, CA, USA) in negative MRM mode. The analytical methods are described in the following sections.
The LC-MS/MS system consisted of an Agilent 1100 series HPLC system (Agilent Technologies, Santa Clara, CA, USA) equipped with an API 3200 QTRAP hybrid triple quadrupole-linear ion trap mass spectrometer with a Turbo V^TM ion spray. All samples were analyzed on an Acquisition mode and data were processed using Analyst® software (version 1.4.2, Applied Biosystems, Foster City, CA, USA). The sample injection volume was 10 µL, and separation was performed using an Atlantis dC18 column (50 × 2.1 mm i.d., 3 µm, Waters, Milford, MA, USA) with a SecurityGuard^TM C18 guard column (2.0 × 4.0 mm i.d., Phenomenex, Torrance, CA, USA) maintained at room temperature. […]

On to `O=C(O)COc1ccc(C23CC4CC(CC(C4)C2)C3)cc1` [APA, 2-(4-((3r,5r,7r)-adamantan-1-yl)phenoxy)acetic acid], for which the “Average AUC0→t (Peak Intensity, Cps)” value is listed as 19,697,150 cps and the “Average AUC0→t (Peak inTensity, cps)” value is recorded as 17,688,080 cps. Moreover, under “after LW6 5 mg/kg i.v.”, the “Relative % of Parent AUC0→t (i.v.)” value is recorded as 1877.92%; the “Relative % of Total Metabolite AUC0→t” value is 92.1% and 92%; the “Relative AUC of metabolite versus parent AUC (i.v.)” value is reported as “approximately 19 fold”. The “Relative % of Total Metabolite AUC0→t” value (after LW6 5 mg/kg i.v., listed as APA (M7)) was 92.09%. For the setting “after LW6 5 mg/kg p.o.”, the “Relative % of Parent AUC0→t (p.o.)” value stood at 1686.37%; the “Relative % of Total Metabolite AUC0→t” value was 93.3% and 93%; the “Relative AUC of metabolite versus parent AUC (i.v.)” value is around 17 fold. Further, the “Relative % of Total Metabolite AUC0→t” value (after LW6 5 mg/kg p.o., listed as APA (M7)) is reported as 93.32%.

Turning to `COC(=O)c1ccc(O)c(NC(=O)COc2ccc(C34CC5CC(CC(C5)C3)C4)cc2)c1` [LW6], the “Average AUC0→t (Peak Intensity, Cps)” value was 1,048,883 cps and the “Average AUC0→t (Peak inTensity, cps)” value is reported as 28,735 cps. Where the note is “after LW6 5 mg/kg i.v., 5 mg/kg”, the “Relative % of Parent AUC0→t (i.v.)” value was 100%. Moreover, the “Relative % of Parent AUC0→t (p.o.)” value (after LW6 5 mg/kg p.o., 5 mg/kg) is 2.7% and 2.74%.

In the case of `O=C(COc1ccc(C23CC4CC(CC(C4)C2)C3)cc1)Nc1cc(C(=O)O)ccc1O` [M9], the “Detection of metabolite in mouse plasma” value is “only detected in plasma samples obtained from intravenous dosing” and the “Average AUC0→t (Peak Intensity, Cps)” value is 7672 cps. For the setting “after LW6 5 mg/kg i.v.”, the “Relative % of Parent AUC0→t (i.v.)” value is 0.73% and the “Relative % of Total Metabolite AUC0→t” value is given as 0.04%.

As for `Oc1ccc(C23CC4CC(CC(C4)C2)C3)cc1` [M12], the “Detection of metabolite in mouse plasma” value is listed as “only detected in plasma samples obtained from intravenous dosing” and the “Average AUC0→t (Peak Intensity, Cps)” value is 31,345 cps. For the same compound, where the note is “after LW6 5 mg/kg i.v.”, the “Relative % of Parent AUC0→t (i.v.)” value turned out to be 2.99% and the “Relative % of Total Metabolite AUC0→t” value stood at 0.15%.
